Experimental findings from US10913745B2, “Octahydro-pyrrolo[3,4-c]-pyrrole derivatives and analogs thereof as autotaxin inhibitors” (Hoffmann-La Roche Inc., priority 2013, dated 2021) are described below.

The target in the experiment is ATX (human His-tagged) (Homo sapiens (Human), UniProt Q13822). The experiment can be described thus: Human ATX enzyme inhibition assay (fluorescence quenching, MR121 substrate). Particulars: MR121 substrate 1 μM, ATX 30 nM final, 30° C. The format is biochemical. The procedure:
Human ATX Enzyme Inhibition Assay
ATX inhibition was measured by a fluorescence quenching assay using a specifically labeled substrate analogue (MR121 substrate). To obtain this MR121 substrate, BOC and TBS protected 6-amino-hexanoic acid (R)-3-({2-[3-(2-{2-[2-(2-amino-ethoxy)-ethoxy]-ethoxy}-ethoxy)-propionylamino]-ethoxy}-hydroxy-phosphoryloxy)-2-hydroxy-propyl ester (Ferguson et al., Org Lett 2006, 8 (10), 2023) was labeled with MR121 fluorophore (CAS 185308-24-1, 1-(3-carboxypropyl)-11-ethyl-1,2,3,4,8,9,10,11-octahydro-dipyrido[3,2-b:2′,3′-i]phenoxazin-13-ium) on the free amine of the ethanolamine side and then, after deprotection, subsequently with tryptophan on the side of the aminohexanoic acid. Assay working solutions were made as follows: Assay buffer (50 mM Tris-HCl, 140 mM NaCl, 5 mM KCl, 1 mM CaCl2, 1 mM MgCl2, 0.01% Triton-X-100, pH 8.0; ATX solution: ATX (human His-tagged) stock solution (1.08 mg/mL in 20 mM bicine, pH 8.5, 0.15 M NaCl, 10% glycerol, 0.3% CHAPS, 0.02% NaN3), diluted to 1.4-2.5× final concentration in assay buffer; MR121 substrate solution: MR121 substrate stock solution (800 μM MR121 substrate in DMSO), diluted to 2-5× final concentration in assay buffer. Test compounds (10 mM stock in DMSO, 8 μL) were obtained in 384 well sample plates (Corning Costar #3655) and diluted with 8 μL DMSO. Row-wise serial dilutions were made by transferring 8 μL cpd solution to the next row up to row O. The compound and control solutions were mixed five times and 2 μL were transferred to 384 well assay plates (Corning Costar #3702). Then, 15 μL of 41.7 nM ATX solution was added (30 nM final concentration), mixed five times and then incubated for 15 minutes at 30° C. 10 μL of MR121 substrate solution was added (1 μM final concentration), mixed 30 times and then incubated for 15 minutes at 30° C.
As to `NS(=O)(=O)c1ccc(C(=O)N2C[C@H]3CCN(C(=O)OCc4cc(Cl)cc(Cl)c4)C[C@@H]3C2)cc1` (racemic) [Example 1.03, trans-3,5-dichlorobenzyl 2-(4-sulfamoylbenzoyl)hexahydro-1H-pyrrolo[3,4-c]pyridine-5(6H)-carboxylate], the half-inhibitory concentration (IC50) was 7 nM.

As for `NS(=O)(=O)c1ccc(C(=O)N2C[C@H]3CCN(C(=O)OCc4cc(Cl)cc(Cl)c4)C[C@@H]3C2)cc1` (single isomer, unassigned) [Example 9A, (−)-trans-3,5-Dichlorobenzyl 2-(4-sulfamoylbenzoyl)hexahydro-1H-pyrrolo[3,4-c]pyridine-5(6H)-carboxylate], half-maximal inhibition (IC50) was put at 4 nM.

In turn, `NS(=O)(=O)c1ccc(C(=O)N2C[C@H]3CCN(C(=O)OCc4cc(Cl)cc(Cl)c4)C[C@@H]3C2)cc1` (single isomer, unassigned) [Example 9B, (+)-trans-3,5-dichlorobenzyl 2-(4-sulfamoylbenzoyl)hexahydro-1H-pyrrolo[3,4-c]pyridine-5(6H)-carboxylate] showed an IC50 of 5 nM.

In turn, `CNS(=O)(=O)c1ccc(C(=O)N2C[C@H]3CN(C(=O)OCc4cc(Cl)cc(Cl)c4)C[C@H]3C2)cc1` [Example 1, (3aR,6aS)-3,5-Dichlorobenzyl 5-(4-(N-methylsulfamoyl)benzoyl)hexahydropyrrolo[3,4-c]pyrrole-2(1H)-carboxylate] came in with an IC50 of 1160 nM.

For `O=C(OCc1cc(Cl)cc(Cl)c1)N1C[C@@H]2CN(C(=O)c3ccc(O)cn3)C[C@@H]2C1` [Example 1.01, (3aR,6aS)-3,5-dichlorobenzyl 5-(5-hydroxypicolinoyl)hexahydropyrrolo[3,4-c]pyrrole-2(1H)-carboxylate], half-maximal inhibition (IC50) required 293 nM.

The molecule `O=C(OCc1cc(Cl)cc(Cl)c1)N1C[C@@H]2CN(C(=O)c3ccc(O)cc3)C[C@@H]2C1` [Example 1.02, (3aR,6aS)-3,5-dichlorobenzyl 5-(4-hydroxybenzoyl)hexahydropyrrolo[3,4-c]pyrrole-2(1H)-carboxylate] had an IC50 of 444 nM.

The molecule `NS(=O)(=O)c1ccc(C(=O)N2C[C@H]3CN(C(=O)OCc4cc(Cl)cc(Cl)c4)C[C@H]3C2)s1` [Example 1.04, (3aR,6aS)-3,5-dichlorobenzyl 5-(5-sulfamoylthiophene-2-carbonyl)hexahydropyrrolo[3,4-c]pyrrole-2(1H)-carboxylate] displayed an IC50 of 8 nM.

With `NS(=O)(=O)c1ccc(C(=O)N2C[C@H]3CN(C(=O)OCc4cc(Cl)cc(Cl)c4)C[C@H]3C2)cc1` [Example 1.05, (3aR,6aS)-3,5-dichlorobenzyl 5-(4-sulfamoylbenzoyl)hexahydropyrrolo[3,4-c]pyrrole-2(1H)-carboxylate], it took 4 nM to reach half-maximal inhibition (IC50).

Turning to `Nc1ccc(C(=O)N2C[C@H]3CN(C(=O)OCc4cc(Cl)cc(Cl)c4)C[C@H]3C2)cc1` [Example 1.06, (3aR,6aS)-3,5-dichlorobenzyl 5-(4-aminobenzoyl)hexahydropyrrolo[3,4-c]pyrrole-2(1H)-carboxylate], inhibition was half-maximal at 255 nM (IC50).

Molecule `Nc1ccc(C(=O)N2C[C@H]3CN(C(=O)OCc4cc(Cl)cc(Cl)c4)C[C@H]3C2)nc1` [Example 1.07, (3aR,6aS)-3,5-dichlorobenzyl 5-(5-aminopicolinoyl)hexahydropyrrolo[3,4-c]pyrrole-2(1H)-carboxylate] displayed an IC50 of 6110 nM.

`N#Cc1ccc(C(=O)N2C[C@H]3CN(C(=O)OCc4cc(Cl)cc(Cl)c4)C[C@H]3C2)cc1` [Example 1.08, (3aR,6aS)-3,5-dichlorobenzyl 5-(4-cyanobenzoyl)hexahydropyrrolo[3,4-c]pyrrole-2(1H)-carboxylate] registered a concentration for half-maximal inhibition (IC50) of 1200 nM.

The molecule `COC(=O)c1ccc(C(=O)N2C[C@H]3CN(C(=O)OCc4cc(Cl)cc(Cl)c4)C[C@H]3C2)cc1` [Example 1.09, (3aR,6aS)-3,5-dichlorobenzyl 5-(4-(methoxycarbonyl)benzoyl)hexahydropyrrolo[3,4-c]pyrrole-2(1H)-carboxylate] returned an IC50 of 118 nM.

For `NS(=O)(=O)c1ccc(C(=O)N2C[C@H]3CCN(C(=O)/C=C/c4ccc(OC(F)(F)F)cc4)CC[C@H]3C2)cc1` [Example 1.10, 4-{(3aS,8aR)-6-[(E)-3-(4-trifluoromethoxy-phenyl)-acryloyl]-octahydro-pyrrolo[3,4-d]azepine-2-carbonyl}-benzenesulfonamide], the IC50 stood at 2 nM.

As for `NS(=O)(=O)c1ccc(C(=O)N2C[C@H]3CN(C(=O)OCc4ccc(OC(F)(F)F)cc4)C[C@@H]3C2)cc1F` [Example 1.11, (3aS,6aS)-5-(3-fluoro-4-sulfamoyl-benzoyl)-hexahydro-pyrrolo[3,4-c]pyrrole-2-carboxylic acid 4-trifluoromethoxy-benzyl ester], half-maximal inhibition (IC50) required 1 nM.

Molecule `O=C(OCc1ccc(OC(F)(F)F)cc1)N1C[C@@H]2CN(C(=O)c3ccc(=O)[nH]c3)C[C@H]2C1` [Example 1.12, (3aS,6aS)-5-(6-oxo-1,6-dihydro-pyridine-3-carbonyl)-hexahydro-pyrrolo[3,4-c]pyrrole-2-carboxylic acid 4-trifluoromethoxy-benzyl ester] registered an IC50 of 440 nM.

The molecule `NS(=O)(=O)c1ccc(C(=O)N2C[C@H]3CN(C(=O)OCc4ccc(OC(F)(F)F)cc4)C[C@@H]3C2)nc1` [Example 1.13, (3aS,6aS)-5-(5-sulfamoyl-pyridine-2-carbonyl)-hexahydro-pyrrolo[3,4-c]pyrrole-2-carboxylic acid 4-trifluoromethoxy-benzyl ester] came in with an IC50 of 1 nM.

Consider `Cn1cc(S(N)(=O)=O)cc1C(=O)N1C[C@H]2CN(C(=O)OCc3ccc(OC(F)(F)F)cc3)C[C@@H]2C1` [Example 1.14, (3 aS,6aS)-5-(1-methyl-4-sulfamoyl-1H-pyrrole-2-carbonyl)-hexahydro-pyrrolo[3,4-c]pyrrole-2-carboxylic acid 4-trifluoromethoxy-benzyl ester], for which the half-maximal inhibitory concentration (IC50) was determined as 64 nM.

The molecule `Cn1c(C(=O)N2C[C@H]3CN(C(=O)OCc4ccc(OC(F)(F)F)cc4)C[C@@H]3C2)ccc1S(N)(=O)=O` [Example 1.15, (3 aS,6aS)-5-(1-methyl-5-sulfamoyl-1H-pyrrole-2-carbonyl)-hexahydro-pyrrolo[3,4-c]pyrrole-2-carboxylic acid 4-trifluoromethoxy-benzyl ester] came in with an IC50 of 58.5 nM.

For the molecule `O=C(OCc1ccc(OC(F)(F)F)cc1)N1C[C@@H]2CN(C(=O)c3ccc(O)cn3)C[C@H]2C1` [Example 1.17, (3aS,6aS)-5-(5-hydroxy-pyridine-2-carbonyl)-hexahydro-pyrrolo[3,4-c]pyrrole-2-carboxylic acid 4-trifluoromethoxy benzyl ester], the concentration for half-maximal inhibition (IC50) was 25 nM.

For the molecule `O=C(OCc1ccc(OC(F)(F)F)cc1)N1C[C@@H]2CN(C(=O)c3ccc(O)cc3)C[C@H]2C1` [Example 1.18, (3aS,6aS)-5-(4-hydroxy-benzoyl)-hexahydro-pyrrolo[3,4-c]pyrrole-2-carboxylic acid 4-trifluoromethoxy-benzyl ester], half-maximal inhibition (IC50) required 13 nM.

As to `NS(=O)(=O)c1ccc(C(=O)N2C[C@H]3CN(C(=O)OCc4ccc(OC(F)(F)F)cc4)C[C@@H]3C2)c(F)c1` [Example 1.19, (3 aS,6aS)-5-(2-fluoro-4-sulfamoyl-benzoyl)-hexahydro-pyrrolo[3,4-c]pyrrole-2-carboxylic acid 4-trifluoromethoxy-benzyl ester], half-maximal inhibition (IC50) was put at 4 nM.

Take `NS(=O)(=O)c1ccc(C(=O)N2C[C@H]3CN(C(=O)CCc4ccc(OC(F)(F)F)cc4)C[C@@H]3C2)cn1` [Example 1.20, 5-{(3 aR,6aR)-5-[3-(4-trifluoromethoxy-phenyl)-propionyl]-hexahydro-pyrrolo[3,4-c]pyrrole-2-carbonyl}-pyridine-2-sulfonic acid amide]: it took 19 nM to reach half-maximal inhibition (IC50).

For the molecule `CCOc1cc(C(=O)N2C[C@@H]3CN(C(=O)c4ccc(S(N)(=O)=O)nc4)C[C@H]3C2)nc2ccccc12` [Example 1.21, 5-((3 aS,6aS)-5-(4-ethoxyquinoline-2-carbonyl)octahydropyrrolo[3,4-c]pyrrole-2-carbonyl)pyridine-2-sulfonamide], the IC50 was found to be 118 nM.

For `CC(C)(C)C(=O)Nc1cc(C#N)ccc1COC(=O)N1C[C@@H]2CN(C(=O)c3ccc(S(N)(=O)=O)c(F)c3)C[C@H]2C1` [Example 1.22, (3aS,6aS)-5-(3-fluoro-4-sulfamoyl-benzoyl)-hexahydro-pyrrolo[3,4-c]pyrrole-2-carboxylic acid 4-cyano-2-(2,2-dimethyl-propionylamino)-benzyl ester], half-maximal inhibition (IC50) required 7 nM.
